In ChEMBL document CHEMBL1201862, “PubChem BioAssay data set” (2004):
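Step 1: Grow cells in 96-well plates. Step 2: Expose to compound for 48 hours at 5 concentrations. Step 3: Interpolate endpoints linearly; if unreached, use highest concentration. GI50 is the concentration that inhibits growth by half.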 Calls of active or inactive are those of the source. No stated cut-off is given here; in the data, active = GI50 up to about 1.1 µM and inactive = higher. Peptide text beside a SMILES is read from it. * marks the point of attachment. Boc = CC(C)(C)OC(=O)*

Legend:
Experiment in all cases: NCI tumour cell line growth inhibition, 48 h
[1] = tested on: OVCAR-8
[2] = tested on: A498
[3] = tested on: OVCAR-5
[4] = tested on: SW-620
[5] = tested on: HCC 2998
[6] = tested on: KM-20L2
[7] = tested on: SK-MEL-2
[8] = tested on: NCI-H23
[9] = tested on: SK-MEL-5
[10] = tested on: ACHN
[11] = tested on: SF-268
[12] = tested on: HOP-62
[13] = tested on: SF-539
[14] = tested on: RXF 393
[15] = tested on: UACC-62
[16] = tested on: LOX IMVI
[17] = tested on: Hs-578T
[18] = tested on: NCI/ADR-RES
[19] = tested on: PC-3
[20] = tested on: DU-145

Measured: GI50

COc1ccc(C[C@@H]2Cc3cc(OC)c(OC)cc3CN2C)cc1
inactive: [1] > 100 µM | [2] > 100 µM | [3] > 100 µM | [4] > 100 µM | [5] > 100 µM | [6] > 100 µM | [7] > 100 µM | [8] > 100 µM | [9] > 100 µM | [10] > 100 µM | [11] > 100 µM | [12] > 100 µM

CCOc1ccc(/N=N/c2ccc3oc(=O)c(/C(C)=N/NC(=O)CC(=O)Nc4cccc(OC)c4)cc3c2)cc1
inactive: [13] 17.2 µM | [1] 18.7 µM | [3] > 46.6 µM | [4] 21.4 µM | [5] 15.6 µM | [6] > 31.6 µM | [7] 20.8 µM | [14] 17.3 µM | [8] 17.5 µM | [15] 13.2 µM | [16] 17.2 µM | [9] 20.2 µM | [10] 21.3 µM | [11] 13.3 µM | [12] 17.9 µM

Cc1ccc(C2=CC(=O)c3ccccc3C2=O)n1-c1ccccc1
inactive: [13] 89.9 µM | [1] > 100 µM | [4] > 100 µM | [5] > 100 µM | [6] > 100 µM | [14] > 100 µM | [8] > 100 µM | [15] 41.9 µM | [16] > 100 µM | [9] > 100 µM | [11] > 100 µM | [12] > 100 µM

Cc1cccc2c1CC(C1OC(=O)c3c(C)cccc31)C2=O (stereo not drawn)
inactive: [13] > 100 µM | [17] > 100 µM | [1] > 100 µM | [2] > 100 µM | [3] > 100 µM | [4] > 100 µM | [5] > 100 µM | [18] > 100 µM | [19] > 100 µM | [7] > 100 µM | [14] > 100 µM | [8] > 100 µM | [15] > 100 µM | [16] 70.6 µM | [9] > 100 µM | [10] > 100 µM | [11] > 100 µM | [20] > 100 µM | [12] > 100 µM

COC(=O)/C(C#N)=C1\CCC(C(=O)OC)N1C (stereo not drawn)
inactive: [13] > 100 µM | [1] > 100 µM | [2] > 100 µM | [5] > 100 µM | [6] > 100 µM | [7] > 100 µM | [14] > 100 µM | [8] > 100 µM | [15] > 100 µM | [9] > 100 µM | [11] > 100 µM | [12] > 100 µM

O=c1c2cc(Br)ccc2nc(-c2ccccc2Cl)n1NCC1(O)OCC(O)C(O)C1O (stereo not drawn)
inactive: [1] > 100 µM | [2] > 100 µM | [3] > 100 µM | [4] > 100 µM | [6] > 100 µM | [7] > 100 µM | [14] > 100 µM | [8] > 100 µM | [15] > 100 µM | [16] > 100 µM | [9] > 100 µM | [10] > 100 µM | [11] > 100 µM | [12] > 100 µM

CN(C)/N=N/c1ccc(S(N)(=O)=O)cc1
inactive: [13] > 100 µM | [1] > 100 µM | [2] > 100 µM | [3] > 100 µM | [4] > 100 µM | [5] > 100 µM | [6] > 100 µM | [7] > 100 µM | [8] > 100 µM | [15] > 100 µM | [16] > 100 µM | [9] > 100 µM | [10] > 100 µM | [11] > 100 µM | [12] > 100 µM

COc1cc2ccn3c4cc(OC)c(OC)cc4cc3c2cc1OC
inactive: [1] > 100 µM | [2] > 100 µM | [3] > 100 µM | [4] > 100 µM | [5] > 100 µM | [6] > 100 µM | [7] > 100 µM | [8] > 100 µM | [15] > 100 µM | [10] > 100 µM | [11] > 100 µM | [12] > 100 µM

O=[N+]([O-])c1cccc(C2ON2C2CCCCC2)c1 (stereo not drawn)
inactive: [13] 22.5 µM | [1] 17.6 µM | [2] 27.4 µM | [3] > 100 µM | [4] 10 µM | [5] 17.2 µM | [6] 22.3 µM | [7] 25.5 µM | [8] 24.7 µM | [15] 20.4 µM | [9] 17.7 µM | [10] 17.5 µM | [11] 23.3 µM | [12] 31.1 µM

CCOC(=O)/C(C#N)=C\C=C1/C=CN=C2NCCN21
inactive: [13] > 100 µM | [1] > 100 µM | [4] > 100 µM | [5] > 100 µM | [6] > 100 µM | [7] > 100 µM | [14] 99.5 µM | [8] > 100 µM | [15] > 100 µM | [16] > 100 µM | [9] > 100 µM | [10] 80.9 µM | [11] > 100 µM | [12] > 100 µM

Cc1cccc(C)c1CO
inactive: [13] > 100 µM | [1] > 100 µM | [3] > 100 µM | [4] > 100 µM | [5] > 100 µM | [6] > 100 µM | [7] > 100 µM | [14] > 100 µM | [8] > 100 µM | [15] > 100 µM | [16] > 100 µM | [10] > 100 µM | [11] > 100 µM | [12] > 100 µM

COCN1CCN=c2c1c1c3c(c4ccccc4n23)CCC1
inactive: [13] > 100 µM | [17] > 100 µM | [1] > 100 µM | [2] > 100 µM | [3] > 100 µM | [4] > 100 µM | [5] > 100 µM | [18] > 100 µM | [19] > 100 µM | [7] > 100 µM | [14] > 100 µM | [8] > 100 µM | [15] > 100 µM | [16] > 100 µM | [9] > 100 µM | [10] > 100 µM | [11] > 100 µM | [20] > 100 µM | [12] > 100 µM

COC(=O)C(Cc1ccccc1)NC(=O)C(CS)NC(=O)OC(C)(C)C (stereo not drawn) (Boc-Cys-Phe-OMe; configuration not given here)
inactive: [13] > 100 µM | [17] > 100 µM | [1] > 100 µM | [2] > 100 µM | [3] > 100 µM | [4] 53.7 µM | [5] > 100 µM | [18] > 100 µM | [19] > 100 µM | [7] > 100 µM | [14] 26 µM | [8] > 100 µM | [15] > 100 µM | [16] 69.2 µM | [9] > 100 µM | [10] > 100 µM | [11] > 100 µM | [20] > 100 µM | [12] > 100 µM

C=CCC1(CC)C(=O)NC(=O)NC1=O [ETALLOBARBITAL]
inactive: [13] > 100 µM | [1] > 100 µM | [4] > 100 µM | [5] > 100 µM | [6] > 100 µM | [14] > 100 µM | [8] > 100 µM | [15] > 100 µM | [16] > 100 µM | [10] > 100 µM | [11] > 100 µM | [12] > 100 µM
